# Measurements published in US9012655B2, “Antimicrobial/adjuvant compounds and methods” (Denouamed, Inc., priority 2011, dated 2015).
# What was measured:
# Experiment in all cases: MIC panel of challenge pathogens (CLSI)
# Type in all cases: cell-based
# [1] = tested on: Enterococcus faecalis ATCC51299; conditions: Enterococcus faecalis ATCC51299
# In short: (§1)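 Broth microdilution per CLSI guidelines. Final inoculum 2-8×10^5 CFU/ml, compounds serially two-fold diluted from 128 mg/L top concentration. Incubated in the dark at 30-37° C for 24-48 h, aerobic or anaerobic as appropriate. MIC read visually as 100% inhibition endpoint; MIC50 and MIC80 also reported.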
# [2] = tested on: Staphylococcus aureus ATCC43300; conditions: Staphylococcus aureus ATCC43300
# In short: as §1
# [3] = tested on: Staphylococcus aureus AUR59 7005; conditions: AUR597005, Staphylococcus aureus AUR59 7005
# In short: as §1
# [4] = tested on: Staphylococcus aureus EUP SAU040; conditions: EUPSAU040, Staphylococcus aureus EUP SAU040
# In short: as §1
# [5] = tested on: Enterococcus faecium ATCC700221; conditions: Enterococcus faecium ATCC700221
# In short: as §1
# [6] = tested on: Staphylococcus aureus EUP MRSA002; conditions: EUPMRSA002, Staphylococcus aureus EUP MRSA002
# In short: as §1
# [7] = tested on: Staphylococcus aureus AUR60 7005; conditions: AUR607005, Staphylococcus aureus AUR60 7005
# In short: as §1
# Bacillus cereus NCTC6349 = conditions: Bacillus cereus NCTC6349
# In short: as §1
# [8] = tested on: Staphylococcus aureus NRS1 (ATCC700699); conditions: Staphylococcus aureus NRS1 (ATCC700699)
# In short: as §1
# [9] = tested on: Staphylococcus aureus AUR58 7005; conditions: AUR587005, Staphylococcus aureus AUR58 7005
# In short: as §1
# [10] = tested on: Staphylococcus epidermidis NRS122; conditions: Staphylococcus epidermidis NRS122
# In short: as §1
# [11] = tested on: Staphylococcus aureus NRS382; conditions: Staphylococcus aureus NRS382
# In short: as §1
# [12] = tested on: Staphylococcus aureus NRS383; conditions: Staphylococcus aureus NRS383
# In short: as §1
# [13] = tested on: Staphylococcus epidermidis NRS7; conditions: Staphylococcus epidermidis NRS7
# In short: as §1
# [14] = tested on: Staphylococcus aureus NRS384; conditions: Staphylococcus aureus NRS384
# In short: as §1
# [15] = tested on: Staphylococcus aureus EUP MRSA004; conditions: EUPMRSA004, Staphylococcus aureus EUP MRSA004
# In short: as §1
# [16] = tested on: Staphylococcus aureus AUR131 007035; conditions: AUR131007035, Staphylococcus aureus AUR131 007035
# In short: as §1
# [17] = tested on: Enterococcus faecalis ATCC29212; conditions: Enterococcus faecalis ATCC29212
# In short: as §1
# [18] = tested on: Staphylococcus aureus NRS2 (ATCC700698); conditions: Staphylococcus aureus NRS2 (ATCC700698)
# In short: as §1
structure (smiles),measurement,setting,value
"Clc1ccc(Cc2sc(-c3nnn[nH]3)cc2-c2cccc(CC3CCCC3)c2)cc1 [DNM0610, 5-(5-(4-Chlorobenzyl)-4-(3-(cyclopentylmethyl)phenyl)thiophen-2-yl)-1H-tetrazole]",MIC,[1]; read-out: 100% inhibition,1 µg/mL
same,MIC50,[1]; read-out: MIC50 (50%),1 µg/mL
same,MIC80,[1]; read-out: MIC80 (80%),1 µg/mL
same,MIC,[2]; read-out: 100% inhibition,0.5 µg/mL
same,MIC50,[2]; read-out: MIC50 (50%),0.5 µg/mL
same,MIC80,[2]; read-out: MIC80 (80%),0.5 µg/mL
same,MIC,[3]; read-out: 100% inhibition,0.5 µg/mL
same,MIC50,[3]; read-out: MIC50 (50%),0.5 µg/mL
same,MIC80,[3]; read-out: MIC80 (80%),0.5 µg/mL
same,MIC,[4]; read-out: 100% inhibition,0.5 µg/mL
same,MIC50,[4]; read-out: MIC50 (50%),0.5 µg/mL
same,MIC80,[4]; read-out: MIC80 (80%),0.5 µg/mL
same,MIC,[5]; read-out: 100% inhibition,0.5 µg/mL
same,MIC50,[5]; read-out: MIC50 (50%),0.5 µg/mL
same,MIC80,[5]; read-out: MIC80 (80%),0.5 µg/mL
same,MIC,[6]; read-out: 100% inhibition,0.5 µg/mL
same,MIC50,[6]; read-out: MIC50 (50%),0.5 µg/mL
same,MIC80,[6]; read-out: MIC80 (80%),0.5 µg/mL
same,MIC,[7]; read-out: 100% inhibition,0.5 µg/mL
same,MIC50,[7]; read-out: MIC50 (50%),0.5 µg/mL
same,MIC80,[7]; read-out: MIC80 (80%),0.5 µg/mL
same,MIC,Bacillus cereus NCTC6349; read-out: 100% inhibition,0.5 µg/mL
same,MIC50,Bacillus cereus NCTC6349; read-out: MIC50 (50%),0.5 µg/mL
same,MIC80,Bacillus cereus NCTC6349; read-out: MIC80 (80%),0.5 µg/mL
same,MIC,[8]; read-out: 100% inhibition,≤ 0.25 µg/mL
same,MIC50,[8]; read-out: MIC50 (50%),≤ 0.25 µg/mL
same,MIC80,[8]; read-out: MIC80 (80%),≤ 0.25 µg/mL
same,MIC,[9]; read-out: 100% inhibition,2 µg/mL
same,MIC50,[9]; read-out: MIC50 (50%),1 µg/mL
same,MIC80,[9]; read-out: MIC80 (80%),2 µg/mL
same,MIC,[10]; read-out: 100% inhibition,16 µg/mL
same,MIC50,[10]; read-out: MIC50 (50%),4 µg/mL
same,MIC80,[10]; read-out: MIC80 (80%),8 µg/mL
same,MIC,[11]; read-out: 100% inhibition,0.5 µg/mL
same,MIC50,[11]; read-out: MIC50 (50%),0.5 µg/mL
same,MIC80,[11]; read-out: MIC80 (80%),0.5 µg/mL
same,MIC,[12]; read-out: 100% inhibition,0.5 µg/mL
same,MIC50,[12]; read-out: MIC50 (50%),0.5 µg/mL
same,MIC80,[12]; read-out: MIC80 (80%),0.5 µg/mL
same,MIC,[13]; read-out: 100% inhibition,2 µg/mL
same,MIC50,[13]; read-out: MIC50 (50%),1 µg/mL
same,MIC80,[13]; read-out: MIC80 (80%),1 µg/mL
same,MIC,[14]; read-out: 100% inhibition,≤ 0.25 µg/mL
same,MIC50,[14]; read-out: MIC50 (50%),≤ 0.25 µg/mL
same,MIC80,[14]; read-out: MIC80 (80%),≤ 0.25 µg/mL
same,MIC,[15]; read-out: 100% inhibition,≤ 0.25 µg/mL
same,MIC50,[15]; read-out: MIC50 (50%),≤ 0.25 µg/mL
same,MIC80,[15]; read-out: MIC80 (80%),≤ 0.25 µg/mL
same,MIC,[16]; read-out: 100% inhibition,0.5 µg/mL
same,MIC50,[16]; read-out: MIC50 (50%),0.5 µg/mL
same,MIC80,[16]; read-out: MIC80 (80%),0.5 µg/mL
same,MIC,[17]; read-out: 100% inhibition,1 µg/mL
same,MIC50,[17]; read-out: MIC50 (50%),1 µg/mL
same,MIC80,[17]; read-out: MIC80 (80%),1 µg/mL
same,MIC,[18]; read-out: 100% inhibition,0.5 µg/mL
same,MIC50,[18]; read-out: MIC50 (50%),0.5 µg/mL
same,MIC80,[18]; read-out: MIC80 (80%),0.5 µg/mL
